These results are taken from patent US4117146A, “Method for treating depression and anxiety using phenyl hydrazo compounds” (The Dow Chemical Company, priority 1977, dated 1978).

Like-named read-outs stand apart in the source and are kept apart here.

Data set [1] in a line: intraperitoneal acute 50 percent lethal dose. The note with it: mouse, in vivo, ip.
Data set [2] has as its system reserpine-induced depression. Briefly: protection from reserpine-induced depression (ptosis) in mice. The data set is classed as in vivo. The conditions noted are these: for ED50: Mus musculus, 0.75 h; for antidepressant activity (in words): mean effective dose not calculated for the compounds of b45-b48. The protocol: Separate groups of mice of the same origin and past history (5 mice per group) were administered 2-(2-(2-chlorophenyl)hydrazino)-4,5-dihydro-1H-imidazole monohydrochloride in an aqueous carrier. Different groups were administered the compound by intraperitoneal injection at various dosage rates. Thirty minutes after the administration of the test compound, the mice were administered reserpine at a dosage rate of 2.5 milligrams per kilogram by intraperitoneal injection. Separate groups of similar mice were similarly administered 2.5 milligrams of reserpine per kilogram 30 minutes after administration of various dosages of the known antidepressant. The mice were then observed for 45 minutes for symptoms of reserpine-induced depression.
Protection from reserpine-induced depression is indicated by the absence of the characteristic ptosis.
The results were employed to calculate the dose effective to protect 50 percent of the mice (ED50) by classical, statistical procedures.
The procedure of Example 1 was repeated using oral administration of 2-(2-(2-chlorophenyl)hydrazino)-4,5-dihydro-1H-imidazole monohydrochloride instead of intraperitoneal injection.
Using the general procedure outlined above, the ED50 's were calculated for other compounds showing antidepressant properties. These compounds are represented by the general formula [drawing 2]

Setting [3] is: Table I, oral, read-out: ORAL ED50.
Where [4] appears, read: ip, Table I, intraperitoneal, read-out: Intraperitoneal ED50.

Compound `Cl.Clc1ccccc1NNC1=NCCN1` [Example 1, 2-(2-(2-chlorophenyl)hydrazino)-4,5-dihydro-1H-imidazole monohydrochloride] gave an LD50 in data set [1] of 167 mg/kg. The ED50 in data set [2] (oral administration, reserpine 2.5 mg/kg i.p., read-out: oral ED50) was 2 mg/kg; in data set [2] (ip, intraperitoneal, 30 minutes before reserpine 2.5 mg/kg i.p., read-out: ED50 (dose effective to protect 50 percent of the mice)) it was under 10 mg/kg. Further, the “antidepressant activity (in words)” value in data set [2] is on record as “particularly active as antidepressants”.

As for `Fc1ccccc1NNC1=NCCN1.I` [Example 3, 2-((2-fluorophenyl)hydrazino)-4,5-dihydro-1H-imidazole monohydriodide], the figures for the ED50 in data set [2] (setting [3]) and in data set [2] (setting [4]) were 1 mg/kg and under 10 mg/kg, respectively. In addition, the “antidepressant activity (in words)” value in data set [2] is given as “particularly active as antidepressants”.

As for `CN1CCN=C1NNc1ccccc1F` [Example 4], the values for the ED50 in data set [2] (setting [3]) and in data set [2] (setting [4]) were 27 mg/kg and 37 mg/kg, respectively.

As for `Fc1ccccc1NNC1=NCCCN1` [Example 5], the ED50 in data set [2] (setting [3]) turned out to be 43 mg/kg; in data set [2] (setting [4]), 37 mg/kg.

In the case of `CN1CCN=C1NNc1ccc(Cl)cc1Cl` [Example 6], in data set [2] (setting [4]), the ED50 was 43 mg/kg.
